Source: patent publication US6046186A, “Estrone sulfamate inhibitors of estrone sulfatase, and associated pharmaceutical compositions and methods of use” (SRI International, priority 1997, dated 2000)
Read-outs that look alike come from different tables or passages of the source.

How the values were obtained:
Estrone Sulfatase = target: T1, Estrone Sulfatase (Homo sapiens, UniProt P08842); assay: Effects of Inhibitors on Estrone Sulfatase Activity in MCF-7 Cells; type: cell-based
T1 construct: endogenous in cells; host or cells: MCF-7 human breast cancer cells (American Type Culture Collection)
T1 sequence (P08842 22-583): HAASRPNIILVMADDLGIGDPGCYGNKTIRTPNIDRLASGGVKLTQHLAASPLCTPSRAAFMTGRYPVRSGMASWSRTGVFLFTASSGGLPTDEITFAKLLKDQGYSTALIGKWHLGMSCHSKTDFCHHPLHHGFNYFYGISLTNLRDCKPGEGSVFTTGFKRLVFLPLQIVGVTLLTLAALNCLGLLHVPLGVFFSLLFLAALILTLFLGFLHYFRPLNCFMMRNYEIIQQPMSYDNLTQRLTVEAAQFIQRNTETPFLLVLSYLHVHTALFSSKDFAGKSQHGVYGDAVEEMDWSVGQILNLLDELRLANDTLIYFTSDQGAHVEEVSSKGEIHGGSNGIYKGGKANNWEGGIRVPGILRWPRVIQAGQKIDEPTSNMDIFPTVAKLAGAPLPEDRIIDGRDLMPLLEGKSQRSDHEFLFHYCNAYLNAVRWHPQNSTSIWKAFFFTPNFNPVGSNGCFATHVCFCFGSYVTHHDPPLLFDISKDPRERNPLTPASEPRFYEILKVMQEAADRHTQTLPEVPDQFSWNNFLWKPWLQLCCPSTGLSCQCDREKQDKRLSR
Description: A. Effects of Inhibitors on Estrone Sulfatase Activity in MCF-7 Cells
Reagents: MCF-7 human breast cancer cell line was supplied by the American Type Culture Collection, Rockville, MD. Eagle's minimum essential medium (MEM) and fetal calf serum (FCS) were purchased from Sigma Chemical Company, St. Louis, Mo. [4-^14 C]Estrone, [6,7-^3 H]estradiol and [6,7-^3 H](N)estrone sulfate were obtained from New England Nuclear Research Products, Boston, Mass.
Procedure: The method of Duncan et al., Cancer Res. 53:298-303 (1993) was employed. MCF-7 cells were seeded in 60 mm×15 mm culture dishes at 1×10^5 cells/dish and maintained in 4.0 ml of MEM containing 2 mM glutamine and 5% FCS. The cells were incubated at 37° C. in an atmosphere of 5% CO2 /95% air and 100% humidity, with the medium changed every third day. When the cells reached 80% confluency, the intact monolayers were washed once with Earl's balanced salt solution and incubated in 4.0 ml of serum and phenol re-free MEM containing either the substrate (^3 H-estrone sulfate, 7 pmol, 9×10^5 dpm) and inhibitor dissolved in ethanol, or ethanol alone. The fmal ethanol concentration was always below 1%. The incubation continued under the regular conditions for 24 h. At the end of 24 h, 2.0 ml of medium was transferred into separate tubes containing 7×10^3 dpm of ^14 C-estrone. The mixture was vortexed vigorously for 60 s with 5 ml of toluene. After phase separation, 2.0 ml of the organic phase was transferred into a counting vial for scintillation counting. The amount of estrone sulfate hydrolyzed was calculated on the basis of ^3 H counts obtained, with the added ^14 C-estrone counts used to correct for recovery through the extraction procedure.
The cells remaining in each culture dish were washed once with saline and then scraped with 1.0 ml of 0.5 N NaOH into 10×75 mm tubes. The cell pellets in each tube was incubated at 50° C. for 20 min to ensure that digestion was complete and all proteins had became soluble. An aliquot was then taken for protein determination by Lowry's method (Lowry et al., J. Biol. Chem. 193:265-275 (1951)).
The percentage of inhibition was determined by evaluating the quantity of estrone sulfate hydrolyzed with the inhibitor relative to that without the inhibitor.
As a general practice, all available inhibitors were first tested at 100 μM; the ones showing inhibitory effects at that concentration were tested again at various concentrations to obtain the IC50 values.

uterus = assay: Uterotrophic assay (estrogenic activity from uterine weights); type: in vivo, Sprague Dawley rats; set-up: scale not given here; conditions: female rats, test compound alone once daily for 7 days, s.c. or oral gavage; uterine weight vs vehicle control
Description: B. Uterotrophic and antiuterotrophic assays
Sprague Dawley rates are obtained from Simmonsen Laboratories, Gilroy, Calif. Estradiol benzoate may be purchased from Sigma Chemical Co., St. Louis, Mo.
The procedure of Wakeling et al., Endocrinology 99:447453 (1983) is followed. Female Sprague Dawley rats weighing 40-50 grams are used for the experiment. In general, animals are quarantined for 3 days after arrival at the experimental site.
Rats are initially weighed and randomly divided into groups with 5 animals in each group. For the uterotrophic assay, animals are dosed once daily with various doses of test compounds in 0.1 or 1.0 ml of sterile saline via subcutaneous injection or oral gavage, respectively. For the antiuterotrophic assay, animals are dosed once daily with the same doses indicated above plus 0.5 μg/rat of estradiol benzoate alone.
The animals are treated for 7 days. On day 8, animals are weighed and then sacrificed. The uterus of each animal is removed immediately after death and weighed; fat materials are trimmed off prior to weighing.
A comparison of uterine weights from the groups receiving test compound alone with those of the vehicle control group gives the estrogenic activity. Antiestrogenic activity is obtained by comparing the uterine weights from the groups receiving test compound plus estradiol with those of the estradiol control group.

[1] = intact MCF-7 human breast cancer cells, 3H-estrone sulfate substrate, 24 h, 37° C., read-out: Estrone Sulfatase Inhibitory Activity IC50

Row | Compound | IC50 (Estrone Sulfatase; [1]) | Estrogenic Activity (uterus) | IC50 (Estrone Sulfatase)
1 | CN(C)CCO[C@@H]1CC[C@H]2[C@@H]3CCc4cc(OS(N)(=O)=O)ccc4[C@H]3CC[C@]12C [Compound 55, 17α-(2'-N,N-Dimethylaminoethoxy)estra-1,3,5(10)-triene-3-O-sulfamate] | 26 nM | 0 | –
2 | CN(C)CCO[C@H]1CC[C@H]2[C@@H]3CCc4cc(OS(N)(=O)=O)ccc4[C@H]3CC[C@]12C [Compound 44, 17β-(2'-N,N-Dimethylaminoethoxy)estra-1,3,5(10)-triene-3-O-sulfamate] | 24 nM | 0 | –
3 | CCCC[C@H]1CC[C@H]2[C@@H]3CCc4cc(OS(N)(=O)=O)ccc4[C@H]3CC[C@]12C [Compound 23, 19,21-Dinorchola-1,3,5(10)-triene-3-O-sulfamate] | 0.096 nM | 0.02 | –
4 | COc1cc2c(cc1OS(N)(=O)=O)CC[C@@H]1[C@@H]2CC[C@]2(C)C(=O)CC[C@@H]12 [Compound 67, 2-Methoxyestra-1,3,5(10)-trien-17-one-3-O-sulfamate] | – | 0 | 0.016 nM
5 | CC[C@H]1CC[C@H]2[C@@H]3CCc4cc(OS(N)(=O)=O)ccc4[C@H]3CC[C@]12C [Compound 19, 19-Norpregna-1,3,5(10)-triene-3-O-sulfamate] | 0.02 nM | 0.54 | –
6 | CCOC(=O)/C=C1/CC[C@H]2[C@@H]3CCc4cc(OS(N)(=O)=O)ccc4[C@H]3CC[C@]12C [Compound 32, Ethyl 3-Sulfamoyloxy-[17(20)Z]-19-norpregna-1,3,5(10),17(20)-tetraen-21-oate] | 2.7 nM | 0 | –
7 | CC(=O)C1=CC[C@H]2[C@@H]3CCc4cc(OS(N)(=O)=O)ccc4[C@H]3CC[C@]12C [Compound 7, 19-Norpregna-1,3,5(10),16-tetraen-20-one-3-O-sulfamate] | 0.021 nM | 0.66 | –
8 | CCC/C=C1/CC[C@H]2[C@@H]3CCc4cc(OS(N)(=O)=O)ccc4[C@H]3CC[C@]12C [Compound 17, [17(20)Z]-19,21-Dinorchola-1,3,5(10)17(20)-tetraene-3-O-sulfamate] | 0.011 nM | 0.55 | –
9 | CC12CC(=O)C3=Cc4ccc(OS(N)(=O)=O)cc4CCC3C1CCC2=O (stereo not drawn) [Compound 99, β-Homo-9-(10-19)-abeoestra-1,3,5(10),9(19)-tetraen-11,17-dione-3-O-sulfamate] | 26 nM | 0 | –
10 | COCc1cc2c(cc1OS(N)(=O)=O)CC[C@@H]1[C@@H]2CC[C@]2(C)C(=O)CC[C@@H]12 [Compound 75, 2-Methoxymethylestra-1,3,5(10)-trien-17-one-3-O-sulfamate] | 2 nM | 0 | –
11 | COC(=O)c1cc2c(cc1OS(N)(=O)=O)CC[C@@H]1[C@@H]2CC[C@]2(C)C(=O)CC[C@@H]12 [Compound 65, 2-Methoxycarbonylestra-1,3,5(10)-trien-17-one-3-O-sulfamate] | – | 0 | –
12 | CC/C=C1\CC[C@H]2[C@@H]3CCc4cc(OS(N)(=O)=O)ccc4[C@H]3CC[C@]12C [Compound 28, [17(20)E]-Propylideneestra-1,3,5(10)-triene-3-O-sulfamate] | 0.027 nM | 0.20 | –
13 | CC(=O)Nc1cc2c(cc1OS(N)(=O)=O)CC[C@@H]1[C@@H]2CC[C@]2(C)C(=O)CC[C@@H]12 [Compound 93, 2-Acetoamideestra-1,3,5(10)-trien-17-one-3-O-sulfamate] | 410 nM | 0.02 | –
14 | C[C@]12CC[C@@H]3c4ccc(OS(N)(=O)=O)cc4CC[C@H]3[C@@H]1CCC2=C(C#N)C#N [Compound 36, 20-Cyano-19-norpregna-1,3,5(10),17(20)-tetraene-21-nitrile-3-O-sulfamate] | 0.09 nM | 0.44 | –
15 | CN(C)CCOC/C=C1\CC[C@H]2[C@@H]3CCc4cc(OS(N)(=O)=O)ccc4[C@H]3CC[C@]12C [Compound 39, 21-(2'-N,N-Dimethylaminoethoxy)-[17(20)E]-19-norpregna-1,3,5(10),17(20)-tetraene-3-O-sulfamate] | 34 nM | 0 | –
16 | CC[C@H]1CC[C@H]2[C@@H]3CCc4cc(OS(N)(=O)=O)c(OC)cc4[C@H]3CC[C@]12C [Compound 71, 2-Methoxy-19-norpregna-1,3,5(10)-triene-3-O-sulfamate] | 1.5 nM | 0 | –
17 | CCC[C@H]1CC[C@H]2[C@@H]3CCc4cc(OS(N)(=O)=O)ccc4[C@H]3CC[C@]12C [Compound 21, 17β-Propylestra-1,3,5(10)-triene-3-O-sulfamate] | 0.034 nM | 0 | –
18 | CC(=O)[C@H]1CC[C@H]2[C@@H]3CCc4cc(OS(N)(=O)=O)ccc4[C@H]3CC[C@]12C [Compound 10, 19-Norpregna-1,3,5(10)trien-20-one-3-O-sulfamate] | 2 nM | 0 | –
19 | CN(C)Cc1cc2c(cc1OS(N)(=O)=O)CC[C@@H]1[C@@H]2CC[C@]2(C)C(=O)CC[C@@H]12 [Compound 73, 2-Dimethylaminomethylestra-1,3,5(10)-trien-17-one-3-O-sulfamate] | > 1000 nM | 0 | –
20 | CC(C)(C)[Si](C)(C)O[C@@H]1CC[C@H]2[C@@H]3CCc4cc(OS(N)(=O)=O)ccc4[C@H]3CC[C@]12C [Compound 52, 17α-tert-Butyldimethylsilyloxyestra-1,3,5(10)-triene-3-O-sulfamate] | – | 0 | 0.31 nM
21 | CC(=O)Nc1c(OS(N)(=O)=O)ccc2c1CC[C@@H]1[C@@H]2CC[C@]2(C)C(=O)CC[C@@H]12 [Compound 96, 4-Acetoamideestra-1,3,5(10)-trien-17-one-3-O-sulfamate] | 290 nM | 0 | –
22 | C[C@]12CC[C@@H]3c4ccc(OS(N)(=O)=O)c([N+](=O)[O-])c4CC[C@H]3[C@@H]1CCC2=O [Compound 77, 4-Nitroestra-1,3,5(10)-trien-17-one-3-O-sulfamate] | < 10 nM | 0 | –
23 | CN(C)c1c(OS(N)(=O)=O)ccc2c1CC[C@@H]1[C@@H]2CC[C@]2(C)C(=O)CC[C@@H]12 [Compound 88, 4-Dimethylaminoestra-1,3,5(10)-trien-17-one-3-O-sulfamate] | 515 nM | 0 | –
24 | CC(=O)O[C@H]1CC[C@H]2[C@@H]3CCc4cc(OS(N)(=O)=O)c(C#N)cc4[C@H]3CC[C@]12C [Compound 59, 2-Cyanoestra-1,3,5(10)-trien-17β-ol-3-O-sulfamate 17β-O-acetate] | 0.3 nM | 0 | –
25 | CN(C)CCCO[C@H]1CC[C@H]2[C@@H]3CCc4cc(OS(N)(=O)=O)ccc4[C@H]3CC[C@]12C [Compound 47, 17β-(3'-N,N-Dimethylaminopropoxy)estra-1,3,5(10)-triene-3-O-sulfamate] | 23 nM | 0.27 | –
